Laboratory results: ChEMBL document CHEMBL5370619, “Targeting the Tyrosine Kinase 2 (TYK2) Pseudokinase Domain: Discovery of the Selective TYK2 Inhibitor ABBV-712” (J Med Chem, 2023)
≈ marks a conversion by molar mass, not a printed value.

Key:
CYP3A4 [1] = target: T1, CYP3A4 (Homo sapiens, UniProt P08684); test: Induction of CYP3A4 in human hepatocytes assessed as maximum activation in mRNA level at 10 uM incubated for 24 hrs by RT-qPCR analysis relative to control; format: ADME, cell-based, Hepatocyte; details: read-out: max activation
T1 sequence (P08684 whole entry): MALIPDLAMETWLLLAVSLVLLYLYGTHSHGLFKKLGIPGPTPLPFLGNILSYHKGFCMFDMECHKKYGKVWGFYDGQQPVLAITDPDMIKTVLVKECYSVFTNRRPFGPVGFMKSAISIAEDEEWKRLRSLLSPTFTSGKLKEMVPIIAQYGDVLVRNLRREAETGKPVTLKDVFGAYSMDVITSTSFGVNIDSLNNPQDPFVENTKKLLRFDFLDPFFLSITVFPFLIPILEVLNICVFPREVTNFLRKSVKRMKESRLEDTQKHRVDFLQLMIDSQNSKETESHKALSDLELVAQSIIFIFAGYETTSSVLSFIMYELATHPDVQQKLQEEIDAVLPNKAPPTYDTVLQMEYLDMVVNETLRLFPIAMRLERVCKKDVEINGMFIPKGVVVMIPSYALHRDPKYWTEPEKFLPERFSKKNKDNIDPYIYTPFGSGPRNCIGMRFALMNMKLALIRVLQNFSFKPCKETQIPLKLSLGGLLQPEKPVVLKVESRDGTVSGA

CYP3A4 [2] = target: T1, CYP3A4; test: Induction of CYP3A4 in human hepatocytes assessed as fold increase in mRNA level at 10 uM incubated for 24 hrs by RT-qPCR analysis relative to control; format: ADME, cell-based, Hepatocyte; details: read-out: FC
CYP3A4 [3] = target: T1, CYP3A4; test: Time dependent inhibition of CYP3A4 in human liver microsomes using midazolam as substrate assessed as 1'-OH midazolam metabolite formation at 50 uM preincubated for 30 mins in presence of NADPH followed by substrate addition and measured after 15 mins by HPLC-MS/MS analysis relative to control; format: ADME, Microsome; details: probe midazolam, time 45 min, read-out: TDI
[4] = Metabolic stability in human hepatocytes assessed as intrinsic clearance for unbound fraction of drug; format: ADME, cell-based, Hepatocyte
[5] = target: T2, Non-receptor tyrosine-protein kinase TYK2 (Homo sapiens, UniProt P29597); test: Inhibition of TYK2 in human T-blast cells assessed as IL-12 induced STAT4 phosphorylation at Tyr694 residue preincubated for 30 mins followed by IL-12 stimulation and measured after 20 mins by AlphaScreen assay; format: cell-based, T-blast cell
T2 sequence (P29597 whole entry): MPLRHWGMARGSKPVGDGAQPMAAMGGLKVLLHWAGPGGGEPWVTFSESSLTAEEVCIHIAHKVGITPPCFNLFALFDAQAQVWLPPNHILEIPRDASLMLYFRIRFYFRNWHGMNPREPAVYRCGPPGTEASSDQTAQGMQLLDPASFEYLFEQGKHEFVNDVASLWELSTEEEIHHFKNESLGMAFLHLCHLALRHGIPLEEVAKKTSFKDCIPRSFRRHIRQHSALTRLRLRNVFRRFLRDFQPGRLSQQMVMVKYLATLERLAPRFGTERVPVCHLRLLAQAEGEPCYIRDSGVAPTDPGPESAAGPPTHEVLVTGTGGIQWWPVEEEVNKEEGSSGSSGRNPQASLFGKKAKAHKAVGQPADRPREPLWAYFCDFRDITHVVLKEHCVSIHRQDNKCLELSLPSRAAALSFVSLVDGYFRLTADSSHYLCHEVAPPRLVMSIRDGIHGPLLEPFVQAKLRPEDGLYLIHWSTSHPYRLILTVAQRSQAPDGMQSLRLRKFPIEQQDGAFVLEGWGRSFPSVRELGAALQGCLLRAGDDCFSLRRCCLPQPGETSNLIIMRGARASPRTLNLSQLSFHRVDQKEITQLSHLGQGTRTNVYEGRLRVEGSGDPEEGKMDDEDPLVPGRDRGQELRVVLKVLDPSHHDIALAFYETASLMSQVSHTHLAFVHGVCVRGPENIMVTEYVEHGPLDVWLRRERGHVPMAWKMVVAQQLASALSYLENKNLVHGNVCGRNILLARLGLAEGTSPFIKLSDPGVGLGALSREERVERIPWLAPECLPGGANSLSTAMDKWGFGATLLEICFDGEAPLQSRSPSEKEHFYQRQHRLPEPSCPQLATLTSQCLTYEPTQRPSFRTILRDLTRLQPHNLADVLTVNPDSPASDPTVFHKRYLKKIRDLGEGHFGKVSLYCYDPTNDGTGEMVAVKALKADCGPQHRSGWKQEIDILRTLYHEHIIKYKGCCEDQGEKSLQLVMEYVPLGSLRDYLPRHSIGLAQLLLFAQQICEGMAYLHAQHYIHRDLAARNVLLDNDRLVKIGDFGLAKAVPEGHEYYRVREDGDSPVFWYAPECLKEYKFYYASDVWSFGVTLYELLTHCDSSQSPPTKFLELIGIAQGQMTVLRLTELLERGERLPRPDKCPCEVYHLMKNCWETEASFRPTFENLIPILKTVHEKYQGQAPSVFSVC

[6] = Thermodynamic solubility in PBS at pH 7.4; format: physicochemical; details: read-out: Therm_solubility
[7] = target: T2, Non-receptor tyrosine-protein kinase TYK2; test: Inhibition of recombinant human N-terminal His-tagged TYK2 JH2 domain (577 to 870 residues) expressed in Sf9 cells using N-(2-(2-(2-((3-(5-acetamido-3-(3-(N,N-dimethylsulfamoyl)phenyl)-1H-pyrrolo[2,3-c]pyridin-1-yl)propyl)amino)-2-oxoethoxy)ethoxy)ethyl)-2',7'-difluoro-3',6'-dihydroxy-3-oxo-3H-spiro[isobenzofuran-1,9'-xanthene]-5-carboxamide trifluoroacetate as substrate incubated for 60 mins by TR-FRET assay
[8] = target: T3, Tyrosine-protein kinase JAK1 (Homo sapiens, UniProt P23458); test: Inhibition of JAK1 in human TF-1 cells assessed as reduction in IL-6 induced STAT3 phosphorylation at Tyr705 residue preincubated for 30 mins followed by IL-6 stimulation and measured after 30 mins by AlphaScreen assay; format: cell-based
T3 sequence (P23458 whole entry, the tested form may be a part): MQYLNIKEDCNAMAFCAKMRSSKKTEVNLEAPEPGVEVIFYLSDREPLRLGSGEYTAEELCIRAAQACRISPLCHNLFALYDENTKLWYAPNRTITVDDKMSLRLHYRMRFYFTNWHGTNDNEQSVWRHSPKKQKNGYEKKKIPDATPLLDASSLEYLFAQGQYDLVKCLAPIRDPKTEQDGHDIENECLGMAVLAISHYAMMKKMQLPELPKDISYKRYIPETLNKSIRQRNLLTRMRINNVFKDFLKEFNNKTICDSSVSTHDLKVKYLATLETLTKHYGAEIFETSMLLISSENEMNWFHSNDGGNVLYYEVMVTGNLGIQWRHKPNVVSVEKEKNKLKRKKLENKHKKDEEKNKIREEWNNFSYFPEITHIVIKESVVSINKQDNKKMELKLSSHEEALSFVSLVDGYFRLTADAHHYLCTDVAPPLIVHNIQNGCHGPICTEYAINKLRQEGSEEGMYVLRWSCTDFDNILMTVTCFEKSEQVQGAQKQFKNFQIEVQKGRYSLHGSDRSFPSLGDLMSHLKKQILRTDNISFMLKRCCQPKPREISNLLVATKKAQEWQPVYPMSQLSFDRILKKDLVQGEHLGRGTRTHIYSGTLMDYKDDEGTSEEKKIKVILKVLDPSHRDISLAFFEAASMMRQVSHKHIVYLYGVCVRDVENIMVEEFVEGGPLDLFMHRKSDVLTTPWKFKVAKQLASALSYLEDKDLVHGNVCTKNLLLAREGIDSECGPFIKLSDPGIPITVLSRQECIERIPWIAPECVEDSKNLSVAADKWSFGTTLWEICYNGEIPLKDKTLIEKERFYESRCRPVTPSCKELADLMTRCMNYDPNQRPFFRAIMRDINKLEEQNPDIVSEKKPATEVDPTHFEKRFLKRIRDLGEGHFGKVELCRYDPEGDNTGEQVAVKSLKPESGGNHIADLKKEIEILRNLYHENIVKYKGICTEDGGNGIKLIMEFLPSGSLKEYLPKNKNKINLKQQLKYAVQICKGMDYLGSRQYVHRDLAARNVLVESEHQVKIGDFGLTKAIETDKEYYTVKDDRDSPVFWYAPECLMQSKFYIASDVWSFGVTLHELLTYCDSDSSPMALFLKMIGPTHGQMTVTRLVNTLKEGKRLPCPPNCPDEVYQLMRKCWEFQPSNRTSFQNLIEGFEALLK

[9] = Selectivity ratio of IC50 for inhibition of TYK2 JH1 domain (unknown origin) to IC50 for inhibition of recombinant human N-terminal His-tagged TYK2 JH2 domain (577 to 870 residues) expressed in Sf9 cells
[10] = Selectivity ratio of IC50 for inhibition of JAK1 JH1 domain (unknown origin) to IC50 for inhibition of recombinant human N-terminal His-tagged TYK2 JH2 domain (577 to 870 residues) expressed in Sf9 cells
[11] = target: T2, Non-receptor tyrosine-protein kinase TYK2; test: Inhibition of TYK2 JH1 domain (unknown origin) by TR-FRET assay
[12] = target: Tyrosine-protein kinase JAK2 (Homo sapiens, UniProt O60674); test: Inhibition of JAK2 in human UT7 cells assessed as reduction in erythropoietin induced STAT5 phosphorylation preincubated for 30 mins followed by erythropoietin stimulation and measured after 20 mins by AlphaScreen assay; format: cell-based
Chain of Tyrosine-protein kinase JAK2 (O60674 whole entry): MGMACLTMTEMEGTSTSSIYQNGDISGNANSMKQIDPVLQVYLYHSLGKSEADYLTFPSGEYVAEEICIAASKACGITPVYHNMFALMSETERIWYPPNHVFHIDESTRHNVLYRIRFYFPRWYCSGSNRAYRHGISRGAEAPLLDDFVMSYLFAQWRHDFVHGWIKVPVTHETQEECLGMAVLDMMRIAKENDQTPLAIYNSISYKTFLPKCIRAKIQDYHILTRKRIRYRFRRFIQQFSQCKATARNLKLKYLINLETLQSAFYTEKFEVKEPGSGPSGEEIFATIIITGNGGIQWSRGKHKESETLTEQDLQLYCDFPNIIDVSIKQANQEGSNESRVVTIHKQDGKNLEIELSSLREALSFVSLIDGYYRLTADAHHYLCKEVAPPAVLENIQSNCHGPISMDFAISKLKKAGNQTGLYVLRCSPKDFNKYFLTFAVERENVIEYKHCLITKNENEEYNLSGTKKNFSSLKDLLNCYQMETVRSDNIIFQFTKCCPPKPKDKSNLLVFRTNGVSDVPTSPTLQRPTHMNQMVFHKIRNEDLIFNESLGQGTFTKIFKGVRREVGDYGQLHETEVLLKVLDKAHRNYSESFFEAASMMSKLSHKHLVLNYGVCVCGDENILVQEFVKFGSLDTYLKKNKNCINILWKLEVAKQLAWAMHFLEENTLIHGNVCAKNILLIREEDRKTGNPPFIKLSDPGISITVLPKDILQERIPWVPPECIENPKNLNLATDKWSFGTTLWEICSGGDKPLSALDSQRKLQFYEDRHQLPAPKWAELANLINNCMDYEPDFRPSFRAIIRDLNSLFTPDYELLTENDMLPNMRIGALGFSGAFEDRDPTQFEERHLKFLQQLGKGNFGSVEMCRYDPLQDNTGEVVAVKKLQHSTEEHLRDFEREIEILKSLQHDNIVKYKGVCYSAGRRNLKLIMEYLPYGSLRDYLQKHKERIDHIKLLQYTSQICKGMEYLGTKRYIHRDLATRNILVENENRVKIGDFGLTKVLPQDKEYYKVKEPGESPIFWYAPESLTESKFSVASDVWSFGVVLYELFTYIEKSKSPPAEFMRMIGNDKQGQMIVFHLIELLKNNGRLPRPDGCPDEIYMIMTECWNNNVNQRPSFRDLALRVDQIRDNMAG

[13] = target: T4, Tyrosine-protein kinase JAK3 (Homo sapiens, UniProt P52333); test: Inhibition of JAK3 in human T-blast cells assessed as reduction in IL-2 induced STAT5 phosphorylation preincubated for 30 mins followed by IL-2 stimulation and measured after 20 mins by AlphaScreen assay; format: cell-based, T-blast cell
T4 sequence (P52333 whole entry): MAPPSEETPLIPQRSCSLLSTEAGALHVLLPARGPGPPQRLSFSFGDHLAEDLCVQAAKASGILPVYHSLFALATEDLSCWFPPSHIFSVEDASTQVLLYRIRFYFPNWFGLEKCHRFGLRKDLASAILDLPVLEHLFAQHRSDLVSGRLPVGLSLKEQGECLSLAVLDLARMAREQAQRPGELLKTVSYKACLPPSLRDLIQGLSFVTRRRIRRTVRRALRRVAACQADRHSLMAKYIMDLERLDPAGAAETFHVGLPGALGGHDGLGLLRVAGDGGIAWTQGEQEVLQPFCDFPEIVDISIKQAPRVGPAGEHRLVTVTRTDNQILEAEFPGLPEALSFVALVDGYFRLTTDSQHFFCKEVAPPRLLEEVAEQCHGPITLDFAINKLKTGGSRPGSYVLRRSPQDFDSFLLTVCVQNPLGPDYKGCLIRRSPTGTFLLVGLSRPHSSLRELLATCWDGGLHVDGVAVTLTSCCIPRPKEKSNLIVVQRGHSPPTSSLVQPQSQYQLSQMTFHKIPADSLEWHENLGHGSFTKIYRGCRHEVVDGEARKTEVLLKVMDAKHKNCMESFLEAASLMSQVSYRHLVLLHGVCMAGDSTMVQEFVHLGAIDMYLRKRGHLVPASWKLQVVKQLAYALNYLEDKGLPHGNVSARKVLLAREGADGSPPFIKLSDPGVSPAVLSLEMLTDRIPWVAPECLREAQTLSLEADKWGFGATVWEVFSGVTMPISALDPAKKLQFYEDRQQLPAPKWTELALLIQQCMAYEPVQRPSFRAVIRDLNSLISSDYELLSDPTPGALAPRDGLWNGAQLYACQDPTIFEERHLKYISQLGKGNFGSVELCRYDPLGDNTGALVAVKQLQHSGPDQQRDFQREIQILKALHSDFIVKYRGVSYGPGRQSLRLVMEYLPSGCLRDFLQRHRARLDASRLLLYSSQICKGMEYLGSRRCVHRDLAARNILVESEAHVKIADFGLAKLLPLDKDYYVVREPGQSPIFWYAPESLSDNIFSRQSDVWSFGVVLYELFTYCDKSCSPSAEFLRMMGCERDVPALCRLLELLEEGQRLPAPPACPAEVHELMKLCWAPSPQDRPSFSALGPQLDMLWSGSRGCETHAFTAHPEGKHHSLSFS

[14] = target: T3, Tyrosine-protein kinase JAK1; test: Inhibition of JAK1 JH1 domain (unknown origin) by TR-FRET assay
[15] = Half life in rat at 1 mg/kg, iv or 1 mg/kg,po; format: ADME, organism-based; details: in vivo
[16] = Oral bioavailability in rat at 1 mg/kg; format: ADME, organism-based; details: in vivo
[17] = Volume of distribution at steady state in rat at 1 mg/kg, iv or 1 mg/kg,po; format: ADME, organism-based; details: in vivo, read-out: Vdss
[18] = Unbound clearance in rat blood at 1 mg/kg, iv or 1 mg/kg,po; format: ADME, organism-based; details: in vivo
[19] = Half life in cynomolgus monkey at 0.5 mg/kg, iv; format: ADME, organism-based, Macaca fascicularis; details: in vivo
[20] = Unbound clearance in cynomolgus monkey blood at 0.5 mg/kg, iv; format: ADME, organism-based, Macaca fascicularis; details: in vivo
[21] = Unbound clearance in dog blood at 0.5 mg/kg, iv; format: ADME, organism-based, Canis lupus familiaris; details: in vivo
[22] = Metabolic stability in dog hepatocytes assessed as intrinsic clearance for unbound fraction of drug; format: ADME, cell-based, Canis lupus familiaris, Hepatocyte
[23] = Half life in dog at 0.5 mg/kg, iv; format: ADME, organism-based, Canis lupus familiaris; details: in vivo
[24] = Metabolic stability in monkey hepatocytes assessed as intrinsic clearance for unbound fraction of drug; format: ADME, cell-based, Macaca mulatta, Hepatocyte; details: rhesus monkey
[25] = Oral bioavailability in dog at 0.5 mg/kg; format: ADME, organism-based, Canis lupus familiaris; details: in vivo
[26] = AUC (0 to infinity) in dog at 0.5 mg/kg,po; format: ADME, organism-based, Canis lupus familiaris; parameters: dose 0.5 mg/kg, route po; details: in vivo

Row | Emax at 24 h, 10 µM (CYP3A4 [1]) | fold induction at 24 h, 10 µM (CYP3A4 [2]) | inhibition at 0.25 h, 50 µM (CYP3A4 [3]) | CL free [4] | EC50 [5] | solubility thermodynamic [6] | IC50 [7] | EC50 [8] | Structure (SMILES) | other results
1 | 42% | 4 | 6% | 110 mL/min/kg | 30 nM |  |  |  | COCCOc1cc(-c2cn(C)c3cnc(NC(C)=O)cc23)nc([C@]2(OC)CCOC2)c1 | 
2 |  |  |  | 80 mL/min/kg |  | 20 µM (≈ 7.33 µg/mL) | 30 nM |  | CO[C@@]1(c2cccc(-c3cn(C)c4cnc(NC(C)=O)cc34)n2)CCOC1 | 
3 |  |  |  |  | 194 nM |  | 35 nM | 14000 nM | CC(=O)Nc1cc2c(-c3cccc(S(=O)(=O)C4COC4)n3)cn(C)c2cn1 | 
4 | 40% | 13 | 20% | 68.3 mL/min/kg |  |  |  |  | CO[C@@]1(c2cc(C#N)cc(-c3cn([C@@H]4CC4(F)F)c4cnc(NC(C)=O)cc34)n2)CCOC1 | 
5 |  |  |  | 140 mL/min/kg | 20 nM | 3.2 µM (≈ 1.19 µg/mL) | 10 nM | 6800 nM | CC(=O)Nc1cc2c(-c3cccc(S(=O)(=O)N(C)C)c3)cn(C)c2cn1 | 
6 |  |  |  | 113 mL/min/kg | 120 nM | 1.2 µM (≈ 0.43 µg/mL) | 30 nM | 19700 nM | CC(=O)Nc1cc2c(-c3cccc(S(=O)(=O)N(C)C)c3)c[nH]c2cn1 | Ratio IC50 [9]: > 200; Ratio IC50 [10]: > 200; IC50 [11]: 6000 nM; EC50 [12]: > 19000 nM; EC50 [13]: > 19000 nM; IC50 [14]: 40000 nM
7 |  |  |  | 41.7 mL/min/kg | 60 nM | 16 µM (≈ 5.88 µg/mL) | 5 nM |  | CO[C@@]1(c2cccc(-c3cn(C)c4cnc(NC(N)=O)cc34)n2)CCOC1 | 
8 |  |  |  | 33 mL/min/kg |  |  |  |  | CO[C@@]1(c2cc(OCC#N)cc(-c3cn(C)c4cnc(NC(C)=O)cc34)n2)CCOC1 | 
9 | 23% | 7.7 | 49% | 31.7 mL/min/kg | 40 nM |  |  |  | CO[C@@]1(c2cc(C(F)F)cc(-c3cn(C)c4cnc(NC(C)=O)cc34)n2)CCOC1 | 
10 |  |  |  | 85 mL/min/kg | 93 nM |  | 9 nM | 17700 nM | CCS(=O)(=O)c1cccc(-c2cn(C)c3cnc(NC(C)=O)cc23)n1 | 
11 | 64% | 6 | 53% | 102 mL/min/kg |  |  |  |  | CO[C@@]1(c2cc(OC(F)F)cc(-c3cn(C)c4cnc(NC(C)=O)cc34)n2)CCOC1 | 
12 | 49% | 13 | 43% | 12.5 mL/min/kg |  |  |  |  | COc1cc(-c2cn(C3COC3)c3cnc(NC(C)=O)cc23)nc([C@]2(OC)CCOC2)c1 | 
13 |  |  |  | 80 mL/min/kg | 1500 nM | 29 µM (≈ 10.6 µg/mL) | 60 nM |  | CO[C@]1(c2cccc(-c3cn(C)c4cnc(NC(C)=O)cc34)n2)CCOC1 | 
14 |  |  |  | 765 mL/min/kg | 540 nM | < 0.8 µM | 480 nM | 36300 nM | CN(C)S(=O)(=O)c1cccc(-c2c[nH]c3cnc(NC(=O)C4CC4)cc23)c1 | 
15 |  |  |  | 132 mL/min/kg | 24 nM | 2.4 µM (≈ 0.896 µg/mL) | 4 nM | 3400 nM | CC(=O)Nc1cc2c(-c3cccc(S(=O)(=O)N(C)C)n3)cn(C)c2cn1 | 
16 | 6% | 2.6 | 8% |  | 77 nM | 105 µM (≈ 47.7 µg/mL) |  | > 20000 nM | CO[C@@]1(c2cc(OCC[C@@H](C)O)cc(-c3cn(C)c4cnc(NC(C)=O)cc34)n2)CCOC1 | EC50 [12]: > 20000 nM; half-life [15]: 1.1 h; EC50 [13]: > 20000 nM; bioavailability [16]: 26%; Vd [17]: 19 L/kg; CL free [18]: 567 mL/min/kg
17 | 3% | 1.8 | 21% | 102 mL/min/kg |  | 190 µM (≈ 86.4 µg/mL) |  | > 20000 nM | CO[C@@]1(c2cc(O[C@@H](C)CCO)cc(-c3cn(C)c4cnc(NC(C)=O)cc34)n2)CCOC1 | half-life [19]: 1.4 h; CL free [20]: 78.3 mL/min/kg; CL free [21]: 41.7 mL/min/kg; EC50 [12]: > 20000 nM; CL free [22]: 30 mL/min/kg; half-life [23]: 3 h; half-life [15]: 0.5 h; EC50 [13]: > 20000 nM; CL free [24]: 107 mL/min/kg; bioavailability [25]: 71%; bioavailability [16]: 16%; Vd [17]: 2.5 L/kg; AUC(0-inf) [26]: 300 ng·h/mL; CL free [18]: 102 mL/min/kg
